Measured values reported in US8648058B2, “Diazeniumdiolate cyclopentyl derivatives” (Merck Sharp & Dohme Corp., priority 2010, dated 2014).

Tested on: Male beagle dogs
Test: canine telemetry protocol for blood pressure reduction efficacy
Format: in vivo
Conditions: 3 mg/kg dose, oral gavage, telemetered male beagle dogs; for ΔPP (mm Hg) 1-6 h / ΔPP (mm Hg) 6-12 h / ΔPP (mm Hg) 12-18 h: change from baseline in pulse pressure; for ΔSBP (mm Hg) 1-6 h / ΔSBP (mm Hg) 6-12 h / ΔSBP (mm Hg) 12-18 h: change from baseline in systolic blood pressure
Description: Compounds of the invention were evaluated for blood pressure reduction efficacy using the following canine telemetry protocol described below.
Male beagle dogs (approximately 1-3 years old) with a body weight of between 10 and 16 kg were surgically implanted with DSI radiotelemetry devices (model: TL11M2-D70-PCT). Briefly, under an inhalant anesthesia, isoflurane/oxygen mixture (1-3.5%/to effect), the body of the telemetry device was positioned and secured intra-abdominally. Subsequently, the arterial catheter of the telemetry device was passed subcutaneously to the inguinal area and introduced into the femoral artery and advanced to the level of the descending aorta. The catheter was secured with 2-0 silk ligatures. The muscle and underlying fascia was closed over the catheter using absorbable suture and the skin was closed using non-absorbable suture. The animals were allowed a minimum recovery period of 2 weeks between surgery and the evaluation of test compounds.
Compound evaluation consisted of a 3 day paradigm at a 3 mg/kg dose. On the first day, no compounds were administered during a 24 hour period of baseline data collection. Blood pressure and heart rate data were collected continuously for one minute periods at 10 minute intervals. On the days of compound administration half the animals received test article with the other half receiving the vehicle used for compound formulation. All test materials were administered by oral gavage in a volume of 1 mL/kg. Data are expressed either as raw values (mm Hg or beats per minute) or as the change from baseline (average value for about 12 hours in low activity period prior to dosing). Change is SBP (systolic blood pressure) and PP (pulse pressure) over time is shown below: […]

| SMILES | ΔPP (mm Hg) 1-6 h | ΔPP (mm Hg) 6-12 h | ΔPP (mm Hg) 12-18 h | ΔSBP (mm Hg) 1-6 h | ΔSBP (mm Hg) 6-12 h | ΔSBP (mm Hg) 12-18 h |
| --- | --- | --- | --- | --- | --- | --- |
| CCN(/[N+]([O-])=N/O[C@@H]1CC[C@@H](C(=O)O)C1)C(C)(C)C [Example 1, (1R,3R)-3-({[(1Z)-2-tert-butyl-2-ethyl-1-oxido-1λ^5-diazan-1-ylidene]amino}oxy)cyclopentanecarboxylic acid] | −7 mm Hg | −7 mm Hg | −5 mm Hg | −12 mm Hg | −9 mm Hg | −7 mm Hg |
| CCCN(/[N+]([O-])=N/O[C@@H]1CC[C@@H](C(=O)O)C1)C(C)(C)C [Example 7, (1R,3R)-3-({[(1Z)-2-tert-butyl-2-propyl-1-oxido-1λ^5-diazan-1-ylidene]amino}oxy)cyclopentanecarboxylic acid] | −4 mm Hg | −9 mm Hg | −8 mm Hg | −9 mm Hg | −11 mm Hg | −10 mm Hg |
| CCN(/[N+]([O-])=N/O[C@@H]1CC[C@H](C(=O)O)C1)C(C)(C)C [Example 18, (1S,3R)-3-({[(1Z)-2-tert-butyl-2-ethyl-1-oxido-1λ^5-diazan-1-ylidene]amino}oxy)cyclopentanecarboxylic acid] | −14 mm Hg | −10 mm Hg | −6 mm Hg | −18 mm Hg | −10 mm Hg | −4 mm Hg |
